In assay [1] the test system is JFH-1 subgenomic replicon-replicating cells. Put plainly: Effect of antiviral agents on replicon RNA replication in JFH-1 subgenomic replicon-replicating cells (quantification of replicon RNA copy number). It is filed as cell-based, hepatitis C virus of genotype 2a (JFH-1 strain). As to conditions: inhibitor for 3 days, relative to no inhibitor (100%). The procedure:
(§1) With the use of the S310A subgenomic replicon-replicating cells of the established 10 clones (Clone Nos. 1 to 10), the copy number of intracellular HCV subgenomic replicon RNA was quantified. The quantification of copy number of HCV subgenomic replicon RNA was carried out in accordance with the technique described in Takeuchi et al. (Gastroenterology, 1999, Vol. 116, pp. 636-642) and Kato et al. (Gastroenterology, 2003, Vol. 125, pp. 1808-1817).
(§2) This technique is a detection system using TaqMan probe method (PerkinElmer Inc., Applied Biosystems Inc.). Specifically, total RNA was first extracted from the S310A subgenomic replicon-replicating cells in accordance with a conventional technique. Subsequently, cDNA was synthesized from total RNA using rTth DNA polymerase, and the synthesized cDNA template was amplified via PCR using the primers: 5′-CGGGAGAGCCATAGTGG-3′ (SEQ ID NO: 24) and 5′-AGTACCACAAGGCCTTTCG-3′ (SEQ ID NO: 25). At this time, a probe having the nucleotide sequence 5′-[…]-3′ (SEQ ID NO: 26) to which a fluorescent dye, 6′-carboxy-fluorescein (FAM), had been bound at the 5′ terminus and a quencher, 6′-carboxytetramethyl-rhodamine (TAMRA), had been bound at the 3′ terminus was added. In the presence of such probe, the probe that had hybridized to the template cDNA is degraded because of 5′ exonuclease activity of the Taq polymerase during the process of amplification, the fluorescent dye is released from the probe, suppression by the quencher is released, thereby emitting fluorescence. Thus, such fluorescence was detected with ABI Prism 7700 (ParkinElmer Inc., Applied Biosystems Inc.) to quantify the copy number of HCV subgenomic replicon RNA.
As a control for comparison, the cells into which HCV subgenomic replicon RNA of the JFH-1 strain of genotype 2a had been introduced (the JFH-1 subgenomic replicon-replicating cells) were used. The JFH-1 strain HCV subgenomic replicon RNA expression vector (comprising the 5′ untranslated region (5′ UTR), the sequence of 57 nucleotides at the 5′ terminus of the Core protein coding region, the neomycin resistance gene, the EMCV IRES sequence, the nucleotide sequences encoding the NS3 protein, the NS4A protein, the NS4B protein, the NS5A protein and the NS5B protein, and the 3′ untranslated region (3′ UTR) of the HCV JFH-1 strain in this order from the 5′ to 3′ direction) was constructed and HCV subgenomic replicon RNA was produced in accordance with the techniques described in Kato et al. (Gastroenterology, 2003, Vol. 125, pp. 1808-1817) and International Publication No. WO 04/104198. Introduction thereof into the Huh cells and quantification of the copy number were carried out in the manner as described above. […]

Assay [2] relates to S310A subgenomic replicon-replicating cells (clones). Put plainly: Effect of antiviral agents on replicon RNA replication in S310A subgenomic replicon-replicating cells (quantification of replicon RNA copy number). It is filed as cell-based, hepatitis C virus of genotype 3a (S310A strain). As to conditions: S310A subgenomic replicon-replicating cell clones 6, 9 and 10; inhibitor for 3 days; relative to no inhibitor (100%). The procedure: as §1, §2
The S310A subgenomic replicon-replicating cells (clones) and the JFH-1 subgenomic replicon-replicating cells were seeded on 24-well plates at a density of 5×10^4 cells/well, interferon-α (IFN-α), NS3 protease inhibitors (VX-950 (telaprevir) (Lin et al, Journal of Biological Chemistry, 2004, Vol. 279, pp. 17508-17514) and BILN-2061 (Daniel et al, Nature, 2003, Vol. 426, pp. 186-189)), and NS5B polymerase inhibitors JTK-109 (Hirashima et al, Journal of Medicinal Chemistry, 2006, Vol. 49, pp. 4721-4736) and PSI-6130 (Clark et al, Journal of Medicinal Chemistry, 2005, Vol. 48, pp. 5504-5508) were added to the wells on the following day, and the reaction was allowed to proceed for 3 days. Thereafter, the cells were recovered, total RNAs were extracted therefrom, and the copy number of HCV subgenomic replicon RNA in the cells was quantified in the same manner as in Example 4.
In each figure, the horizontal axis represents the concentration of an inhibitor added. The vertical axis represents change ratio of HCV RNA levels, which is the percentage (%) of the amount of subgenomic replicon RNA per μg of total RNA from cells when an inhibitor was added, relative to the amount of subgenomic replicon RNA per μg of total RNA from cells when no inhibitor was added (0 IU or 0 M) (defined as 100%). In the Figures, the leftmost bar (white) represents the results for the JFH-1 subgenomic replicon-replicating cells, the second bar from the left (light gray) represents the results for the S310A subgenomic replicon-replicating cell clone 6, the third bar from the left (black) represents the results for the S310A subgenomic replicon-replicating cell clone 9, and the rightmost bar (dark gray) represents the results for the S310A subgenomic replicon-replicating cell clone 10 at each inhibitor concentration.

Assay [3] concerns HCV genotypes 1 to 6 except for genotype 3a. As to conditions: Reesink et al., Gastroenterology, 2010; cited from earlier work.
For a further assay, the system named is HCV genotype 3a. As to conditions: Reesink et al., Gastroenterology, 2010; cited from earlier work.
Another assay has as its system HCV genotype 1b. The note with it: Mori et al., 1992; cited from earlier work.
Another assay deals with HCV genotype 2a or 3a. As to conditions: compared with genotype 1b; Mori et al., 1992; cited from earlier work.

For the compound `COc1ccc2c(O[C@@H]3C[C@H]4C(=O)N[C@]5(C(=O)O)C[C@H]5/C=C\CCCCC[C@H](NC(=O)OC5CCCC5)C(=O)N4C3)cc(-c3csc(NC(C)C)n3)nc2c1` [BILN-2061], in assay [1], the “replication of the JFH-1 subgenomic replicon RNA (change ratio of HCV RNA levels)” value was “exert inhibitory activity”. Further, the “replication of the S310A subgenomic replicon RNAs (change ratio of HCV RNA levels)” value in assay [2] was “did not inhibit”.
The like results for `O=C(O)c1ccc2c(c1)nc(-c1ccc(OCc3cc(N4CCCC4=O)ccc3-c3ccc(Cl)cc3)cc1F)n2C1CCCCC1` [JTK-109] were, in that order, “not to be inhibited” and “markedly inhibited”.
The like results for `C[C@@]1(F)[C@H](O)[C@@H](CO)O[C@H]1n1ccc(N)nc1=O` [PSI-6130] were, in that order, “inhibited” and “inhibited”.
As for `COc1ccc2c(O[C@@H]3C[C@H]4C(=O)N[C@]5(C(=O)NS(=O)(=O)C6CC6)C[C@H]5/C=C\CCCCN(C)C(=O)[C@@H]4C3)cc(-c3nc(C(C)C)cs3)nc2c1C` [TMC435], in assay [3], the “inhibitory effects on genotypes 1 to 6 except for genotype 3a” value is “strong inhibitory effects”. Also, the “inhibitory effects on genotype 3a” value with HCV genotype 3a was “weak inhibitory effects”.
Regarding `CCC[C@H](NC(=O)[C@@H]1[C@H]2CCC[C@H]2CN1C(=O)[C@@H](NC(=O)[C@@H](NC(=O)c1cnccn1)C1CCCCC1)C(C)(C)C)C(=O)C(=O)NC1CC1` [VX-950, telaprevir], the “replication of the S310A subgenomic replicon RNAs (change ratio of HCV RNA levels)” value in assay [2] was “did not inhibit”.
Take IFN-α: the “replication of the JFH-1 subgenomic replicon RNA (change ratio of HCV RNA levels)” value in assay [1] is given as “markedly inhibited”. The “replication of the S310A subgenomic replicon RNAs (change ratio of HCV RNA levels)” value in assay [2] is given as “markedly inhibited”.
In the case of interferon, the “therapeutic effect of interferon on genotype 1b” value with HCV genotype 1b is “low”. For the same compound, in the assay on HCV genotype 2a or 3a, the “therapeutic effect of interferon on genotype 2a or 3a” value is listed as “higher”.

Source of the values: patent publication US9453056B2, “Nucleic acid construct comprising nucleic acid derived from genome of hepatitis C virus of genotype 3a” (priority 2011, dated 2016).
